In EP0631668B1, “DETERMINATION OF BINDING AFFINITY USING MAGNETICALLY-LABELED BINDING MEMBERS” (ABBOTT LABORATORIES, priority 1992, dated 1993):

Target: T1, streptavidin-coated paramagnetic microparticle (Streptomyces avidinii, UniProt P22629)
T1 construct: purchased Advanced Magnetics, Cambridge, MA
Assay: Magnetically assisted avidin-biotin binding assay (competitive inhibition, balance readout)
Conditions: free biotin concentration 125 nanograms/milliliter (80 µl assayed); 12 milligrams at 0 nanograms/milliliter; Figure 6
Method: The following reagents and samples were used in a binding assay:
The magnetically-labeled reagent was a streptavidin-coated paramagnetic microparticle (Advanced Magnetics, Cambridge, MA; average one micron in diameter, with 5x10^8 particles per mg, supplied as a 5 mg/ml suspension).
Incubation was continued at 37° C for an additional 45 minutes. The wells were then emptied and washed with PBS using a wash bottle.
The magnetically-labeled reagent was first combined with the test sample, thereby forming a reaction mixture which was incubated for one hour at 37° C. […] The unbound magnetically-labeled reagent was removed from the reaction mixture by means of magnetic attraction.

T1 sequence (P22629 25-183): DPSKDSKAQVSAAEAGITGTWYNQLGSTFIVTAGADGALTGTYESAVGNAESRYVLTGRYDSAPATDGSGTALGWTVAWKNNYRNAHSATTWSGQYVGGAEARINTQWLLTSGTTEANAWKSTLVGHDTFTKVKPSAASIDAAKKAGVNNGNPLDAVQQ

Which “force change detected by the balance means” value does the source give for `O=C(O)CCCC[C@@H]1SC[C@@H]2NC(=O)N[C@@H]21` [biotin] here?
Its value is “zero”.
